Assay results published in ChEMBL document CHEMBL4402585 (J Med Chem, 2020).
The source made the active and inactive calls. The rule behind the calls is not given here.

Experiments:
[1] = target: Histone acetyltransferase p300 (Homo sapiens, UniProt Q09472); experiment: Inhibition of MSGRGK(Ac)-GGK(Ac)GLGK(Ac)GGAKRHR-biotin binding to EP300 (1040 to 1160 residues) (unknown origin) expressed in Escherichia coli BL21 (DE3) by Alphascreen assay
MV4-11 [2] = experiment: Antiproliferative activity against human MV4-11 cells assessed as reduction in cell viability measured after 72 hrs by Celltitre-glo luminescence assay; type: functional, cell-based; conditions: MV4-11, 72 h
Kasumi 1 = experiment: Antiproliferative activity against human Kasumi-1 cells assessed as reduction in cell viability measured after 72 hrs by Celltitre-glo luminescence assay; type: functional, cell-based; conditions: Kasumi 1, 72 h
RS4-11 = experiment: Antiproliferative activity against human RS4:11 cells assessed as reduction in cell viability measured after 72 hrs by Celltitre-glo luminescence assay; type: functional, cell-based; conditions: RS4-11, 72 h
MM1.S = experiment: Antiproliferative activity against human MM1S cells assessed as reduction in cell viability measured after 72 hrs by Celltitre-glo luminescence assay; type: functional, cell-based
MV4-11 [3] = experiment: Cell cycle arrest in human MV4-11 cells assessed as increase in accumulation at G1-phase at 125 nM measured after 24 hrs by propidium iodide staining based flow cytometry; type: functional
MV4-11 [4] = experiment: Antitumor activity against human MV4-11 cells xenografted in mouse assessed as tumor growth inhibition at 50 mg/kg, po administered for 28 days and measured every 2 to 3 days during compound dosing relative to control; type: functional; conditions: MV4-11, po, read-out: TGI
[5] = target: T1, Bromodomain-containing protein 4 (Homo sapiens, UniProt O60885); experiment: (§1) Inhibition of SGRG-K(Ac)-GG-K(Ac)-GLG-K(Ac)-GGA-K(Ac)-RHRKVGG-K-Biotin binding to N-terminal His6-tagged BRD4 bromodomain 1 (49 to 170 residues) (unknown origin) expressed in Escherichia coli BL21 (DE3) preincubated for 15 mins followed by biotin-labeled H4 peptide addition and measured after 10 mins by Alphascreen assay
[6] = target: T1, Bromodomain-containing protein 4; experiment: as §1, with “2 (344” for “1 (49”, “455” for “170”
[7] = target: T1, Bromodomain-containing protein 4
Description: Binding affinity to N-terminal His6-tagged BRD4 bromodomain 1 (49 to 170 residues) (unknown origin) expressed in Escherichia coli BL21 (DE3) assessed as change in melting temperature at 1:100 molar ratio by SYPRO orange dye based fluorescence thermal shift assay

[8] = Clearance in human liver microsomes at 0.1 uM preincubated for 10 mins followed by NADPH addition and measured up to 60 mins by LC-MS/MS analysis; type: ADME, Microsome; conditions: 1 h
[9] = Clearance in rat liver microsomes at 0.1 uM preincubated for 10 mins followed by NADPH addition and measured up to 60 mins by LC-MS/MS analysis; type: ADME, Microsome; conditions: 1 h
[10] = Clearance in mouse liver microsomes at 0.1 uM preincubated for 10 mins followed by NADPH addition and measured up to 60 mins by LC-MS/MS analysis; type: ADME, Microsome; conditions: 1 h
[11] = Half life in human liver microsomes at 0.1 uM preincubated for 10 mins followed by NADPH addition and measured up to 60 mins by LC-MS/MS analysis; type: ADME, Microsome
[12] = Half life in rat liver microsomes at 0.1 uM preincubated for 10 mins followed by NADPH addition and measured up to 60 mins by LC-MS/MS analysis; type: ADME, Microsome
[13] = Half life in mouse liver microsomes at 0.1 uM preincubated for 10 mins followed by NADPH addition and measured up to 60 mins by LC-MS/MS analysis; type: ADME, Microsome
[14] = target: T1, Bromodomain-containing protein 4; experiment: Inhibition of BRD4 (unknown origin)
[15] = target: T1, Bromodomain-containing protein 4; experiment: Inhibition of HSGRGK(Ac)GGK(Ac)GLGK(Ac)GGAK(Ac)RHRK(Biotin)-OH binding to recombinant human His6-tagged BRD4 bromodomain 1 expressed in Escherichia coli BL21 (DE3)-R3-pRARE2 cells preincubated for 30 mins followed by HSGRGK(Ac)GGK(Ac)GLGK(Ac)GGAK(Ac)RHRK(Biotin)-OH addition and measured after 30 mins by Alphascreen assay
[16] = Half life in Sprague-Dawley rat at 3 mg/kg, po by LC-MS/MS analysis; type: ADME, organism-based; conditions: in vivo
[17] = Cmax in Sprague-Dawley rat at 3 mg/kg, po by LC-MS/MS analysis; type: ADME, organism-based; set-up: dose 3 mg/kg, route oral; conditions: in vivo
[18] = AUC (0 to t) in Sprague-Dawley rat at 3 mg/kg, po by LC-MS/MS analysis; type: ADME, organism-based; conditions: in vivo
[19] = Oral bioavailability in Sprague-Dawley rat at 3 mg/kg by LC-MS/MS analysis; type: ADME, organism-based; conditions: in vivo
[20] = Half life in Sprague-Dawley rat at 1 mg/kg, iv by LC-MS/MS analysis; type: ADME, organism-based; conditions: in vivo
[21] = Volume of distribution at steady state in Sprague-Dawley rat at 1 mg/kg, iv by LC-MS/MS analysis; type: ADME, organism-based; conditions: in vivo, read-out: Vdss
[22] = AUC (0 to t) in Sprague-Dawley rat at 1 mg/kg, iv by LC-MS/MS analysis; type: ADME, organism-based; conditions: in vivo
[23] = Clearance in Sprague-Dawley rat at 1 mg/kg, iv by LC-MS/MS analysis; type: ADME, organism-based; conditions: in vivo

Histone acetyltransferase p300, sequence (Q09472 whole entry, the tested form may be a part): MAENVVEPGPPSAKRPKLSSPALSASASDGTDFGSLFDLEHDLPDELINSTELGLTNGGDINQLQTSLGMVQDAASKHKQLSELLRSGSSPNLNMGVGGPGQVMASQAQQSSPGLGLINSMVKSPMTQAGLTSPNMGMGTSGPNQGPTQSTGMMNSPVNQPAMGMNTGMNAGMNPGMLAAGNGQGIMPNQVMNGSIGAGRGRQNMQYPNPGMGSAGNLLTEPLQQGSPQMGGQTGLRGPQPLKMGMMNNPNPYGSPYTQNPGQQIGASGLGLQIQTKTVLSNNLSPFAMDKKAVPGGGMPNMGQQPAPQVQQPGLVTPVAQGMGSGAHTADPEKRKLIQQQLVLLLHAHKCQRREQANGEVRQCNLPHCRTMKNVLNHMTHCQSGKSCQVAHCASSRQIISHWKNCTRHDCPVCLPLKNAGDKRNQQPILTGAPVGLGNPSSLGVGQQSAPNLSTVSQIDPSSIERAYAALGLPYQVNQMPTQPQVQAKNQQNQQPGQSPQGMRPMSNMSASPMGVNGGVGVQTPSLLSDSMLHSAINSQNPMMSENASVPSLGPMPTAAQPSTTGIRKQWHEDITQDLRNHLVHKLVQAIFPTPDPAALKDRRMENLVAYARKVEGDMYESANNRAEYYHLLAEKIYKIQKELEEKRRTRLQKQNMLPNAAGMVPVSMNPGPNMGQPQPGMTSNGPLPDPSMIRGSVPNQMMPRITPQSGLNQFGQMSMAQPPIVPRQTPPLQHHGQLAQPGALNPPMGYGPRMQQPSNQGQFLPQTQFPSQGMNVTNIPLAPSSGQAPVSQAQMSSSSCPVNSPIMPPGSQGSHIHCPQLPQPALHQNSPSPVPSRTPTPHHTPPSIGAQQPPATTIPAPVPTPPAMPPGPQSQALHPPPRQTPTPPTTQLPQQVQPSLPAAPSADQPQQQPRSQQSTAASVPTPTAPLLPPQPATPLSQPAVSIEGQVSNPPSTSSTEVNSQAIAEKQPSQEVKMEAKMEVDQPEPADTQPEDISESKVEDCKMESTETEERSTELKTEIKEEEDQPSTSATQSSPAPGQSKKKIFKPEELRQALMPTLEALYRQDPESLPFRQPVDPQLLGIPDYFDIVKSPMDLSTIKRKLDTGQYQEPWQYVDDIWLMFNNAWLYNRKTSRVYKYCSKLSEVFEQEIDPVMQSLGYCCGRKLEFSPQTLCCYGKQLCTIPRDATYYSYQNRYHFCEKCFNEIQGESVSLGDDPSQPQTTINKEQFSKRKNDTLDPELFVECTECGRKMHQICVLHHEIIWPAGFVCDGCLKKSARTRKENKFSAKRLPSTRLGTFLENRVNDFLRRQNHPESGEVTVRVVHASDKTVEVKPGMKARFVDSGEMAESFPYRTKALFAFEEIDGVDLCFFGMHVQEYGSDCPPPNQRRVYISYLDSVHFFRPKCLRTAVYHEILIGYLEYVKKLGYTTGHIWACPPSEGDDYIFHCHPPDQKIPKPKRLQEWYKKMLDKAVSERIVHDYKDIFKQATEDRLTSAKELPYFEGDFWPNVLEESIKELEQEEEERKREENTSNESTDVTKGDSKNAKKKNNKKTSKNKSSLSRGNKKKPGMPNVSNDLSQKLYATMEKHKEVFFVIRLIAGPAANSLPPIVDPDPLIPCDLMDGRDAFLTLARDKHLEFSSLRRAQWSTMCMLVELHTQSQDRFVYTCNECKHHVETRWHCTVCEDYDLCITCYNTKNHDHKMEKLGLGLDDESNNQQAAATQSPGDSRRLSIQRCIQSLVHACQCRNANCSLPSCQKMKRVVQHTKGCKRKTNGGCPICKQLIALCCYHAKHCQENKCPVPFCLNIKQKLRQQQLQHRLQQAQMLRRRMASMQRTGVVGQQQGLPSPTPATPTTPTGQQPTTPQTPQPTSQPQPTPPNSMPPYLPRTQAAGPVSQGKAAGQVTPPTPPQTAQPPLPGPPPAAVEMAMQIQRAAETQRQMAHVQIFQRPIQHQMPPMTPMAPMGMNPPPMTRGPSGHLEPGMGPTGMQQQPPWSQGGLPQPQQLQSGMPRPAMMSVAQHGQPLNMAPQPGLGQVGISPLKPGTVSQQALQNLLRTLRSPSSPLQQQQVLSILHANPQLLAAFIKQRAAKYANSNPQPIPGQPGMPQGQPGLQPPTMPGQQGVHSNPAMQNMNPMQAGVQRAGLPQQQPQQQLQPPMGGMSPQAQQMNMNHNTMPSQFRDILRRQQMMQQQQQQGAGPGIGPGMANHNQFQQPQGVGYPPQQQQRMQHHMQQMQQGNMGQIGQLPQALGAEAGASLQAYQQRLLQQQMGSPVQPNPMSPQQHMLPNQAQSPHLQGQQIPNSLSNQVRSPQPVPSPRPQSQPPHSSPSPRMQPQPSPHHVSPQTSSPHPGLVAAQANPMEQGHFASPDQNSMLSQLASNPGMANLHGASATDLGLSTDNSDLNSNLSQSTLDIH

SMILES | IC50 [1] | IC50 (MV4-11 [2]) | IC50 [5] | IC50 [6] | ΔTm [7] | further results
Cc1sc2c(c1C)C(c1ccc(Cl)cc1)=N[C@@H](CC(=O)Nc1ccc(O)cc1)c1nnc(C)n1-2 [BIRABRESIB] | > 33000 nM | 46.3 nM |  |  |  | IC50 (Kasumi 1): 135 nM; IC50 (RS4-11): 416 nM; IC50 (MM1.S): 137 nM; Activity (MV4-11 [3]): Active; inhibition in vivo at 50 mg/kg (MV4-11 [4]): 62.3%
Cc1cc(-c2ccccc2Oc2ccccc2)n2cc[nH]c(=O)c12 |  |  | 4500 nM | 1600 nM | > 1 °C | 
Cc1cc(-c2cc(NS(C)(=O)=O)ccc2OC2CCOCC2)n2cc[nH]c(=O)c12 | > 33000 nM | 387 nM |  |  | > 1 °C | 
Cc1cc(-c2cc(S(C)(=O)=O)cnc2Oc2ccc(F)cc2F)n2cc[nH]c(=O)c12 | > 33000 nM |  | 288 nM | 229 nM | > 1 °C | 
Cc1cc(-c2cc(NS(C)(=O)=O)ccc2Oc2ccccc2)n2ccn(C)c(=O)c12 |  |  | > 2000 nM | > 2000 nM | > 1 °C | 
Cc1cc(-c2cc(NS(C)(=O)=O)ccc2Oc2ccc(Cl)cc2)n2cc[nH]c(=O)c12 | 57000 nM | 118 nM | 128 nM | 178 nM | > 1 °C | 
CC(=O)Nc1ccc(Oc2ccc(F)cc2F)c(-c2cc(C)c3c(=O)[nH]ccn23)c1 | > 100000 nM |  | 219 nM | 97.9 nM | > 1 °C | 
Cc1cc(-c2cc(NS(C)(=O)=O)ccc2OC2CCCCC2)n2cc[nH]c(=O)c12 | 5400 nM | 4.9 nM |  |  | > 1 °C | Microsomal intrinsic clearance [8]: 752 mL/min/g; Intrinsic clearance [9]: 2137 mL/min/g; Microsomal intrinsic clearance [10]: 333 mL/min/g; half-life at 0.1 µM [11]: 2.7 min; half-life at 0.1 µM [12]: 0.9 min; half-life at 0.1 µM [13]: 6.3 min
CCS(=O)(=O)Cc1ccc(Oc2ccc(F)cc2F)c(-c2cc(C)c3c(=O)[nH]ccn23)c1 | 18600 nM | 6.5 nM | 4.7 nM | 7.4 nM | > 1 °C | Microsomal intrinsic clearance [8]: 46 mL/min/g; Intrinsic clearance [9]: 61.9 mL/min/g; Microsomal intrinsic clearance [10]: 175 mL/min/g; half-life at 0.1 µM [11]: 46.3 min; half-life at 0.1 µM [12]: 33.9 min; half-life at 0.1 µM [13]: 12 min
Cc1cc(-c2cc(NS(C)(=O)=O)ccc2Oc2ccc(F)cc2F)n2cc[nH]c(=O)c12 | 17800 nM | 36.6 nM |  |  | > 1 °C | Microsomal intrinsic clearance [8]: 36.2 mL/min/g; Intrinsic clearance [9]: 327 mL/min/g; Microsomal intrinsic clearance [10]: 141 mL/min/g; half-life at 0.1 µM [11]: 58.1 min; half-life at 0.1 µM [12]: 6.4 min; half-life at 0.1 µM [13]: 14.9 min
Cc1cc(-c2cc(S(=O)(=O)N(C)C)ccc2Oc2ccc(F)cc2F)n2cc[nH]c(=O)c12 | > 100000 nM |  | 198 nM | 71.3 nM | > 1 °C | 
Cc1cc(-c2cc(NS(C)(=O)=O)ccc2OCC2CC2)n2cc[nH]c(=O)c12 | 25100 nM | 185 nM | 78.6 nM | 77.2 nM | > 1 °C | 
Cc1cc(-c2cc(NS(C)(=O)=O)ccc2Sc2ccccc2)n2cc[nH]c(=O)c12 | > 100000 nM |  |  |  | > 1 °C | 
Cc1sc2c(c1C)C(c1ccc(Cl)cc1)=N[C@@H](CC(N)=O)c1nnc(C)n1-2 |  |  |  |  |  | IC50 [14]: 92 to 112 nM
Cc1cc(-c2cc(NS(C)(=O)=O)ccc2Oc2ccccn2)n2cc[nH]c(=O)c12 | 12600 nM | 211 nM | 27.3 nM | 25.9 nM | > 1 °C | 
Cc1cc(Br)n2cc[nH]c(=O)c12 |  |  |  |  | 1.9 °C | 

SMILES | IC50 [1] | IC50 (MV4-11 [2]) | IC50 [5] | IC50 [6] | ΔTm [7] | further results
Cc1cc(-c2cc(NS(C)(=O)=O)cnc2Oc2ccc(F)cc2F)n2cc[nH]c(=O)c12 | > 5000 nM | 537 nM |  |  | > 1 °C | 
Cc1cc(-c2cc(NS(C)(=O)=O)ccc2Nc2ccccc2)n2cc[nH]c(=O)c12 | > 33000 nM | 257 nM | 68 nM | 28.4 nM | > 1 °C | 
Cc1cc(-c2cc(S(=O)(=O)NC(C)(C)C)ccc2Oc2ccc(F)cc2F)n2cc[nH]c(=O)c12 | > 100000 nM |  | 438 nM | 420 nM | > 1 °C | 
Cc1cc(-c2cc(S(=O)(=O)N(C)C)cnc2Oc2ccc(F)cc2F)n2cc[nH]c(=O)c12 | > 100000 nM |  | 740 nM | 772 nM | > 1 °C | 
Cc1cc(-c2cc(S(C)(=O)=O)ccc2Oc2ccc(F)cc2F)n2cc[nH]c(=O)c12 | > 33000 nM |  | 134 nM | 117 nM | > 1 °C | 
Cc1cc(-c2cc(NS(C)(=O)=O)ccc2OCC(C)(C)C)n2cc[nH]c(=O)c12 | 26900 nM |  | > 1000 nM | 669 nM | > 1 °C | 
CCS(=O)(=O)Nc1ccc(Oc2ccc(F)cc2F)c(-c2cc(C)c3c(=O)[nH]ccn23)c1 | 4000 nM | 14.5 nM |  |  | > 1 °C | Microsomal intrinsic clearance [8]: 62 mL/min/g; Intrinsic clearance [9]: 264 mL/min/g; Microsomal intrinsic clearance [10]: 229 mL/min/g; half-life at 0.1 µM [11]: 33.9 min; half-life at 0.1 µM [12]: 7.9 min; half-life at 0.1 µM [13]: 9.1 min
Cc1cc(-c2cc(CS(C)(=O)=O)ccc2Oc2ccc(F)cc2F)n2cc[nH]c(=O)c12 | 16500 nM | 14.8 nM |  |  | > 1 °C | Microsomal intrinsic clearance [8]: 115 mL/min/g; Intrinsic clearance [9]: 112 mL/min/g; Microsomal intrinsic clearance [10]: 380 mL/min/g; half-life at 0.1 µM [11]: 18.2 min; half-life at 0.1 µM [12]: 18.8 min; half-life at 0.1 µM [13]: 5.5 min
Cc1cc(-c2cc(S(=O)(=O)NC(C)(C)C)cnc2Oc2ccc(F)cc2F)n2cc[nH]c(=O)c12 | > 100000 nM |  | 788 nM | 478 nM | > 1 °C | 
Cc1cc(-c2cc(NS(C)(=O)=O)ccc2Oc2ccccc2)n2cc[nH]c(=O)c12 | 25100 nM | 20.4 nM |  |  | > 1 °C | Microsomal intrinsic clearance [8]: 74 mL/min/g; Intrinsic clearance [9]: 3039 mL/min/g; Microsomal intrinsic clearance [10]: 116 mL/min/g; half-life at 0.1 µM [11]: 28.4 min; half-life at 0.1 µM [12]: 0.7 min; half-life at 0.1 µM [13]: 18.1 min
Cc1cc(-c2cc(NS(C)(=O)=O)ccc2Oc2ccccc2)n2c1C(=O)NCC2 | 34700 nM |  | 76 nM | 130 nM |  | 
CC(=O)C[C@@H]1N=C(c2ccc(Cl)cc2)c2c(sc(C)c2C)-n2c(C)nnc21 |  |  |  |  |  | IC50 [15]: 77 nM
Cc1cc(-c2cc(NS(C)(=O)=O)ccc2Cc2ccccc2)n2cc[nH]c(=O)c12 | 15600 nM |  | > 1000 nM | > 1000 nM | > 1 °C | 
Cc1cc(-c2cc(CS(C)(=O)=O)cnc2Oc2ccc(F)cc2F)n2cc[nH]c(=O)c12 | 2200 nM | 14.2 nM | 7.4 nM | 3.5 nM | > 1 °C | Microsomal intrinsic clearance [8]: 26.1 mL/min/g; Intrinsic clearance [9]: 64.6 mL/min/g; Microsomal intrinsic clearance [10]: 35.7 mL/min/g; half-life at 0.1 µM [11]: 80.4 min; half-life at 0.1 µM [12]: 32.5 min; half-life at 0.1 µM [13]: 58.5 min; half-life [16]: 90 min; Cmax [17]: 160 ng/mL; AUC(0-t) [18]: 520 ng·h/mL; bioavailability [19]: 37.9%; half-life [20]: 48 min; Vd [21]: 1.9 L/kg; AUC(0-t) [22]: 457 ng·h/mL; clearance [23]: 37.5 mL/min/kg
CCS(=O)(=O)Nc1ccc(Oc2ccc(F)cc2F)c(-c2cn(C)c(=O)c3[nH]ccc23)c1 [MIVEBRESIB] | 63 nM | 1.9 nM |  | 2.7 nM | > 1 °C | IC50 (Kasumi 1): 6.3 nM; IC50 (RS4-11): 6.4 nM; IC50 (MM1.S): 6.5 nM
